Biological target: T1, Recombinant human PAD4 (2-663) (Homo sapiens, UniProt Q9UM07)
T1 construct: Recombinant human PAD4 (2-663) was expressed in E. coli; made in house; host or cells: E. coli
Test: PAD4 Inhibition Assay
Format: biochemical
Details: 60 mins pre-incubation at RT; substrate BAEE with CaCl2; fluorescent signal (λex 405/λem 460)
Experimental: Protein: Recombinant human PAD4 (2-663) was expressed in E. coli as an N-terminal Strep-tag and C-terminal 6-his tag fusion protein. Protein was purified using Strep-tactin resin followed by size exclusion chromatography. Tags were not removed during purification. Activity of the protein was determined using ammonia quantification assay.
PAD4 enzyme (10 μL) was diluted to concentration of 75 nM in assay buffer A (100 mM HEPES, pH 8, 50 mM NaCl, 2 mM DTT, 0.6 mg/mL BSA and 0.5% DMSO) and added to wells containing 10 μL of various concentrations of test compound, or DMSO vehicle in buffer A with 1.5% final DMSO concentration in a Corning high volume 384 well black plate. Following 60 mins pre-incubation at RT with gentle shaking, the reaction was initiated by the addition of 10 μL of substrate buffer containing 3 mM N-α-benzoyl-L-arginine ethyl ester (BAEE) and 600 μM CaCl2) in assay buffer A. The reaction was stopped after 60 mins with the addition of 15 μL stop/detection buffer containing 7.5 mM phthalaldehyde, 50 mM EDTA and 7.5 mM DTT in assay buffer A. Quenched reactions were incubated at RT for 45 mins before measuring fluorescent signal (λex 405/λem 460) on an Envision plate reader (Perkin Elmer Life Sciences, Waltham, Mass., USA).

T1 sequence (Q9UM07 2-663): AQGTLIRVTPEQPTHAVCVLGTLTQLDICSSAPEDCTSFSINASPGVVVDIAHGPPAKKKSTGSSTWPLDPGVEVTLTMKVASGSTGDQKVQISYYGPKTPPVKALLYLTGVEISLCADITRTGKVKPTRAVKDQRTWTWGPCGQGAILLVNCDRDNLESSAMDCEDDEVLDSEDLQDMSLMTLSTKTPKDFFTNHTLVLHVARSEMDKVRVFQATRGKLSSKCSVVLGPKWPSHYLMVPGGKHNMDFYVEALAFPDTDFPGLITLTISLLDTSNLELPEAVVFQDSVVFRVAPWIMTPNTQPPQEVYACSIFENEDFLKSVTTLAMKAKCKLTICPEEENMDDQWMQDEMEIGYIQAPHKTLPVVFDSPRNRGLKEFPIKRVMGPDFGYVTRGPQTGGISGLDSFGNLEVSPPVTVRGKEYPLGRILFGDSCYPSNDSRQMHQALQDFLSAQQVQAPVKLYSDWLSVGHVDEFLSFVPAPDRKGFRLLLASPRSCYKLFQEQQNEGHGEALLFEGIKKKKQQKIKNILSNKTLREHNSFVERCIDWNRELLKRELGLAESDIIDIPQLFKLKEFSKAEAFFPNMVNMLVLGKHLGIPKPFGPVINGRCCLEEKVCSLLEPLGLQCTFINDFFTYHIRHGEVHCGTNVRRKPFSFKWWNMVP

Row | SMILES | IC50 [µM]
1 | N[C@@H]1CCN(C(=O)c2cc3cc(Cl)c(F)c(F)c3[nH]2)C1 [Example 1, (R)-(3-Aminopyrrolidin-1-yl)(5-chloro-6,7-difluoro-1H-indol-2-yl)methanone] | ≤ 1
2 | N[C@@H]1CCN(C(=O)c2cc3cc(Cl)cc(F)c3[nH]2)C1 [Example 2, (R)-(3-Aminopyrrolidin-1-yl)(5-chloro-7-fluoro-1H-indol-2-yl)methanone] | ≤ 1
3 | N[C@@H]1CCN(C(=O)c2cc3cc(Br)c(F)c(F)c3[nH]2)C1 [Example 5, (R)-(3-Aminopyrrolidin-1-yl)(5-bromo-6,7-difluoro-1H-indol-2-yl)methanone] | ≤ 1
4 | N[C@@H]1CCN(C(=O)c2cc3cc(F)c(Br)c(F)c3[nH]2)C1 [Example 6, (R)-(3-Aminopyrrolidin-1-yl)(6-bromo-5,7-difluoro-1H-indol-2-yl)methanone] | 10 to 100
5 | N[C@@H]1CCN(C(=O)c2cc3cc(Cl)ccc3[nH]2)C1 [Example 8, (R)-(3-Aminopyrrolidin-1-yl)(5-chloro-1H-indol-2-yl)methanone] | 1 to 10
6 | C[C@@H](CN)NC(=O)c1cc2cc(Cl)c(F)c(F)c2[nH]1 [Example 9, (S)-N-(1-Aminopropan-2-yl)-5-chloro-6,7-difluoro-1H-indole-2-carboxamide] | ≤ 1
7 | CC[C@@H](CN)NC(=O)c1cc2cc(Cl)c(F)c(F)c2[nH]1 [Example 10, (S)-N-(1-Aminobutan-2-yl)-5-chloro-6,7-difluoro-1H-indole-2-carboxamide] | 1 to 10
8 | NCC(NC(=O)c1cc2cc(Cl)c(F)c(F)c2[nH]1)C1CC1 (stereo not drawn) [Example 11, N-(2-Amino-1-cyclopropylethyl)-5-chloro-6,7-difluoro-1H-indole-2-carboxamide] | 10 to 100
9 | C[C@@H]1CNC[C@H]1NC(=O)c1cc2cc(Cl)c(F)c(F)c2[nH]1 [Example 13, 5-Chloro-6,7-difluoro-N-((3S,4R)-4-methylpyrrolidin-3-yl)-1H-indole-2-carboxamide] | 1 to 10
10 | C[C@H]1CNC[C@H]1NC(=O)c1cc2cc(Cl)c(F)c(F)c2[nH]1 [Example 14, 5-Chloro-6,7-difluoro-N-((3S,4S)-4-methylpyrrolidin-3-yl)-1H-indole-2-carboxamide] | ≤ 1
11 | O=C(N[C@@H]1CNC[C@H]1O)c1cc2cc(Cl)c(F)c(F)c2[nH]1 [Example 15, 5-Chloro-6,7-difluoro-N-((3R,4R)-4-hydroxypyrrolidin-3-yl)-1H-indole-2-carboxamide] | 1 to 10
12 | O=C(N[C@H]1CNC[C@H]1O)c1cc2cc(Cl)c(F)c(F)c2[nH]1 [Example 17, 5-Chloro-6,7-difluoro-N-((3S,4R)-4-hydroxypyrrolidin-3-yl)-1H-indole-2-carboxamide] | 10 to 100
13 | O=C(N[C@H]1CNC[C@@H]1O)c1cc2cc(Cl)c(F)c(F)c2[nH]1 [Example 18, 5-Chloro-6,7-difluoro-N-((3S,4S)-4-hydroxypyrrolidin-3-yl)-1H-indole-2-carboxamide] | 10 to 100
14 | CC(C)C[C@@H](CN)NC(=O)c1cc2cc(Cl)c(F)c(F)c2[nH]1 [Example 19, (S)-N-(1-Amino-4-methylpentan-2-yl)-5-chloro-6,7-difluoro-1H-indole-2-carboxamide] | 10 to 100
15 | C[C@@H]1CNC[C@@H]1NC(=O)c1cc2cc(Cl)c(F)c(F)c2[nH]1 [Example 20, 5-Chloro-6,7-difluoro-N-((3R,4R)-4-methylpyrrolidin-3-yl)-1H-indole-2-carboxamide] | ≤ 1
16 | N[C@H]1CN(C(=O)c2cc3cc(Cl)c(F)c(F)c3[nH]2)C[C@@H]1O [Example 22, ((3S,4S)-3-Amino-4-hydroxypyrrolidin-1-yl)(5-chloro-6,7-difluoro-1H-indol-2-yl)methanone] | ≤ 1
17 | O=C(NC1CNC1)c1cc2cc(Cl)c(F)c(F)c2[nH]1 [Example 23, N-(Azetidin-3-yl)-5-chloro-6,7-difluoro-1H-indole-2-carboxamide] | ≤ 1
18 | NC1CN(C(=O)c2cc3cc(Cl)c(F)c(F)c3[nH]2)C1 [Example 24, (3-Aminoazetidin-1-yl)(5-chloro-6,7-difluoro-1H-indol-2-yl)methanone] | 1 to 10
19 | O=C(N[C@@H]1CCNC1)c1cc2cc(Cl)c(F)c(F)c2[nH]1 [Example 25, (R)-5-Chloro-6,7-difluoro-N-(pyrrolidin-3-yl)-1H-indole-2-carboxamide] | 10 to 100
20 | N[C@H]1CNC[C@@H]1NC(=O)c1cc2cc(Cl)c(F)c(F)c2[nH]1 [Example 30, N-((3S,4S)-4-Aminopyrrolidin-3-yl)-5-chloro-6,7-difluoro-1H-indole-2-carboxamide] | 10 to 100
21 | N[C@H]1CN(C(=O)c2cc3cc(Cl)c(F)c(F)c3[nH]2)C[C@H]1O [Example 32, ((3S,4R)-3-Amino-4-hydroxypyrrolidin-1-yl)(5-chloro-6,7-difluoro-1H-indol-2-yl)methanone] | 1 to 10
22 | CO[C@H]1CNC[C@@H]1NC(=O)c1cc2cc(Cl)c(F)c(F)c2[nH]1 [Example 33, 5-Chloro-6,7-difluoro-N-((3S,4S)-4-methoxypyrrolidin-3-yl)-1H-indole-2-carboxamide] | 10 to 100
23 | C[C@H]1CNC[C@@H]1NC(=O)c1cc2cc(Cl)c(F)c(F)c2[nH]1 [Example 36, 5-Chloro-6,7-difluoro-N-((3R,4S)-4-methylpyrrolidin-3-yl)-1H-indole-2-carboxamide] | 1 to 10
24 | N[C@H]1CN(C(=O)c2cc3cc(Cl)c(F)c(F)c3[nH]2)C[C@@H]1F [Example 37, ((3S,4S)-3-Amino-4-fluoropyrrolidin-1-yl)(5-chloro-6,7-difluoro-1H-indol-2-yl)methanone] | 1 to 10
25 | N[C@@H]1CCCN(C(=O)c2cc3cc(Cl)c(F)c(F)c3[nH]2)C1 [Example 38, (R)-(3-Aminopiperidin-1-yl)(5-chloro-6,7-difluoro-1H-indol-2-yl)methanone] | 10 to 100
26 | O=C(N[C@H]1CCCNC1)c1cc2cc(Cl)c(F)c(F)c2[nH]1 [Example 39, (S)-5-Chloro-6,7-difluoro-N-(piperidin-3-yl)-1H-indole-2-carboxamide] | 10 to 100
27 | O=C(N[C@@H]1CCCNC1)c1cc2cc(Cl)c(F)c(F)c2[nH]1 [Example 40, (R)-5-Chloro-6,7-difluoro-N-(piperidin-3-yl)-1H-indole-2-carboxamide] | 10 to 100

Other lines, results leading:

Row | IC50 [µM] | SMILES
28 | 1 to 10 | N[C@@H]1CCN(C(=O)c2cc3cc(F)c(F)c(F)c3[nH]2)C1 [Example 3, (R)-(3-Aminopyrrolidin-1-yl)(5,6,7-trifluoro-1H-indol-2-yl)methanone]
29 | 1 to 10 | N[C@@H]1CCN(C(=O)c2cc3cc(F)c(Cl)c(F)c3[nH]2)C1 [Example 4, (R)-(3-Aminopyrrolidin-1-yl)(6-chloro-5,7-difluoro-1H-indol-2-yl)methanone]
30 | 10 to 100 | N[C@H]1CN(C(=O)c2cc3cc(Cl)c(F)c(F)c3[nH]2)C[C@H]1F [Example 7, ((3S,4R)-3-Amino-4-fluoro-pyrrolidin-1-yl)-(5-chloro-6,7-difluoro-1H-indol-2-yl)-methanone]
31 | 10 to 100 | NCC1(NC(=O)c2cc3cc(Cl)c(F)c(F)c3[nH]2)COC1 [Example 12, N-(3-(Aminomethyl)oxetan-3-yl)-5-chloro-6,7-difluoro-1H-indole-2-carboxamide]
32 | 1 to 10 | O=C(N[C@@H]1CNC[C@@H]1O)c1cc2cc(Cl)c(F)c(F)c2[nH]1 [Example 16, 5-Chloro-6,7-difluoro-N-((3R,4S)-4-hydroxypyrrolidin-3-yl)-1H-indole-2-carboxamide]
33 | 10 to 100 | C[C@H](CN)NC(=O)c1cc2cc(Cl)c(F)c(F)c2[nH]1 [Example 21, (R)-N-(1-Aminopropan-2-yl)-5-chloro-6,7-difluoro-1H-indole-2-carboxamide]
34 | 1 to 10 | O=C(N[C@H]1CCNC1)c1cc2cc(Cl)c(F)c(F)c2[nH]1 [Example 26, (S)-5-Chloro-6,7-difluoro-N-(pyrrolidin-3-yl)-1H-indole-2-carboxamide]
35 | ≤ 1 | N[C@H]1CCN(C(=O)c2cc3cc(Cl)c(F)c(F)c3[nH]2)C1 [Example 27, (S)-(3-Aminopyrrolidin-1-yl)(5-chloro-6,7-difluoro-1H-indol-2-yl)methanone]
36 | 10 to 100 | CC(C)(C)[C@@H](CN)NC(=O)c1cc2cc(Cl)c(F)c(F)c2[nH]1 [Example 28, (S)-N-(1-Amino-3,3-dimethylbutan-2-yl)-5-chloro-6,7-difluoro-1H-indole-2-carboxamide]
37 | 1 to 10 | N[C@H]1CN(C(=O)c2cc3cc(Cl)c(F)c(F)c3[nH]2)C[C@@H]1N [Example 29, (5-Chloro-6,7-difluoro-1H-indol-2-yl)((3S,4S)-3,4-diaminopyrrolidin-1-yl)methanone]
38 | 10 to 100 | CO[C@@H]1CNC[C@H]1NC(=O)c1cc2cc(Cl)c(F)c(F)c2[nH]1 [Example 34, 5-Chloro-6,7-difluoro-N-((3R,4R)-4-methoxypyrrolidin-3-yl)-1H-indole-2-carboxamide]
39 | > 100 | CO[C@H]1CN(C(=O)c2cc3cc(Cl)c(F)c(F)c3[nH]2)C[C@@H]1N [Example 35, ((3S,4S)-3-Amino-4-methoxypyrrolidin-1-yl)(5-chloro-6,7-difluoro-1H-indol-2-yl)methanone]
